This is an account of results in ChEMBL document CHEMBL1201862, “PubChem BioAssay data set” (2004).

Some test systems named below: CAKI-1; COLO 205; HCT-15; HL-60; HOP-62; HT-29; MOLT-4; NCI-H23; OVCAR-3; OVCAR-4; OVCAR-5; RXF 393; SK-MEL-2; SK-MEL-5; SK-OV-3; UACC-257; UO-31; KM12; SF-539; Malme-3M.
What all share (test): NCI-60 cell line screen, 48 h

Structures are written as SMILES.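 Dose response: 5 concentrations. Exposure: 48 h. Format: 96-well plates. Endpoint: linear interpolation; highest concentration if not reached. Here, GI50 denotes the concentration required for 50% inhibition of growth.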 Active and inactive are the calls of the source. No stated cut-off is given here; in the data, active = GI50 up to about 1.1 µM and inactive = higher. A value given as a limit tells only on which side of the number the result lay.

With `C[C@]12CC[C@@H]3c4ccc(OCCN5CCCC5)cc4CC[C@H]3[C@@H]1CCC2=O`, the GI50 in the experiment on CAKI-1 was 31.1 µM (inactive); in the experiment on COLO 205 it was 8.41 µM (inactive); with HCT-15, 6.35 µM; in the experiment on HL-60 it was 45.2 µM (inactive); in the experiment with HOP-62, 18.6 µM (inactive); with HT-29 it was 25.9 µM (inactive). In addition, the GI50 with MOLT-4 was 22.4 µM (inactive); with NCI-H23, 36.4 µM (inactive); with OVCAR-3, 23.9 µM (inactive); in the experiment with OVCAR-4, 21.5 µM (inactive); in the experiment on OVCAR-5 it was 33.7 µM (inactive); with RXF 393, 25.5 µM (inactive). The GI50 is 17.6 µM (inactive) in the experiment on SK-MEL-2; 13.3 µM (inactive) in the experiment with SK-MEL-5; 48.6 µM (inactive) with SK-OV-3; 27 µM (inactive) with UACC-257; 20.8 µM (inactive) with UO-31.
Consider `NC(CCP(=O)(O)CCC1C=CC=CC1)C(=O)O` (configuration not stated), for which the GI50 with CAKI-1 is > 100 µM (inactive); with COLO 205, > 100 µM (inactive); with HCT-15, over 100 µM; in the experiment with HL-60 it was > 100 µM (inactive); in the experiment with HT-29 it was > 100 µM (inactive); in the experiment with KM12, > 100 µM (inactive). The GI50 with MOLT-4, in the experiment on NCI-H23, with OVCAR-3, in the experiment on OVCAR-4, in the experiment with OVCAR-5 and in the experiment on RXF 393 was > 100 µM (inactive) in each case. In addition, the GI50 in the experiment with SF-539 was 56.8 µM (inactive); in the experiment on SK-MEL-2, > 100 µM (inactive); in the experiment on SK-MEL-5 it was > 100 µM (inactive); with SK-OV-3 it was > 100 µM (inactive); with UACC-257, > 100 µM (inactive); in the experiment with UO-31, > 100 µM (inactive).
On to `CSc1nc(NC2OC(CO)C(O)C(O)C2O)c(N)c(=O)[nH]1` (configuration not stated), for which the GI50 with COLO 205 is > 100 µM (inactive); with HCT-15, over 100 µM; in the experiment on HL-60, > 100 µM (inactive); in the experiment with HOP-62, > 100 µM (inactive); with HT-29, > 100 µM (inactive); with KM12, > 100 µM (inactive). For the same compound, the GI50 in the experiment on MOLT-4, in the experiment on Malme-3M, in the experiment on NCI-H23, in the experiment with OVCAR-3, in the experiment on OVCAR-4 and in the experiment with OVCAR-5 was > 100 µM (inactive) in each case. For the same compound, the GI50 with RXF 393, in the experiment with SF-539, in the experiment with SK-MEL-2, in the experiment with SK-MEL-5, in the experiment with SK-OV-3 and with UACC-257 was > 100 µM (inactive) throughout. For the same compound, in the experiment with UO-31, the GI50 was > 100 µM (inactive).
`COc1ccc(C2SCc3nc4ccccc4n32)cc1` (configuration not stated): the GI50 is 2.21 µM (inactive) in the experiment on CAKI-1; 2.73 µM (inactive) in the experiment with COLO 205; 3.16 µM in the experiment with HCT-15; 1.91 µM (inactive) in the experiment on HL-60; 2.4 µM (inactive) in the experiment on HT-29; 3.37 µM (inactive) in the experiment with MOLT-4. The GI50 in the experiment on Malme-3M is 7.55 µM (inactive); in the experiment on NCI-H23, 4.04 µM (inactive); with OVCAR-3, 6.28 µM (inactive); with SF-539, 5.66 µM (inactive); with SK-MEL-2, 3.9 µM (inactive); in the experiment with SK-MEL-5, 3.84 µM (inactive). Further, the GI50 was 3.5 µM (inactive) in the experiment on SK-OV-3 and 10 µM (inactive) in the experiment on UO-31.
On to `O=C(c1ccccc1)c1ccc2n[se]nc2c1`, for which the GI50 with CAKI-1 was 27.7 µM (inactive); in the experiment with COLO 205, 21.1 µM (inactive); in the experiment with HCT-15 it was 14 µM; in the experiment with HL-60 it was 3.56 µM (inactive); in the experiment on HT-29, 6.34 µM (inactive); with KM12, 4.54 µM (inactive). The GI50 with MOLT-4 is 23.9 µM (inactive); with Malme-3M, > 100 µM (inactive); in the experiment with NCI-H23, 62.5 µM (inactive); with OVCAR-4 it was 39.4 µM (inactive); in the experiment on OVCAR-5, 36.5 µM (inactive); in the experiment with RXF 393 it was 40.9 µM (inactive). Besides, the GI50 with SF-539 is 17.9 µM (inactive); with SK-MEL-2 it was > 100 µM (inactive); with SK-MEL-5 it was 11.8 µM (inactive); in the experiment with SK-OV-3 it was 35.1 µM (inactive); in the experiment with UACC-257, > 100 µM (inactive); in the experiment with UO-31, > 100 µM (inactive).
Regarding `CCOC(=O)CCC(NC(=O)OCc1ccccc1)C(=O)NC(CCC(=O)OCC)C(=O)NNC(=O)OC(C)(C)C` (configuration not stated), the GI50 with CAKI-1 was > 100 µM (inactive); with COLO 205, > 100 µM (inactive); with HCT-15 it was over 100 µM; in the experiment with HL-60 it was > 100 µM (inactive); in the experiment on HOP-62, > 100 µM (inactive); in the experiment with KM12 it was > 100 µM (inactive). The GI50 is 28.2 µM (inactive) in the experiment with MOLT-4; > 100 µM (inactive) with Malme-3M; > 100 µM (inactive) with NCI-H23; > 100 µM (inactive) with OVCAR-3; > 100 µM (inactive) in the experiment with OVCAR-5; 18.7 µM (inactive) in the experiment with RXF 393. Moreover, the GI50 in the experiment with SK-MEL-2, in the experiment on SK-MEL-5, with SK-OV-3 and in the experiment on UO-31 was > 100 µM (inactive) throughout.
For `CCOC(=O)CSc1nc(N)c2c(-c3ccc(OC)c(OC)c3)c3c(nc2n1)CCCC3`, the GI50 is > 100 µM (inactive) with CAKI-1; > 100 µM (inactive) in the experiment with COLO 205; over 100 µM with HCT-15; > 100 µM (inactive) in the experiment on HL-60; 39 µM (inactive) in the experiment on HOP-62; > 100 µM (inactive) in the experiment with HT-29. The GI50 in the experiment on KM12 is > 100 µM (inactive); in the experiment on MOLT-4 it was > 100 µM (inactive); in the experiment on Malme-3M it was 88.1 µM (inactive); in the experiment on NCI-H23 it was > 100 µM (inactive); in the experiment on OVCAR-3, > 100 µM (inactive); in the experiment on OVCAR-4 it was 34.4 µM (inactive). Also, the GI50 was > 100 µM (inactive) in the experiment with OVCAR-5; 49.2 µM (inactive) in the experiment with RXF 393; > 100 µM (inactive) with SK-MEL-5; 26.9 µM (inactive) in the experiment with SK-OV-3; > 100 µM (inactive) in the experiment with UACC-257; > 100 µM (inactive) in the experiment on UO-31.
Turning to `O=C1c2cccc3cc4ccccc4c(c23)C(=O)N1CCNCCNCCNCCN1C(=O)c2cccc3cc4ccccc4c(c23)C1=O`, the GI50 in the experiment with CAKI-1 was < 0.01 µM (active); with COLO 205, < 0.01 µM (active); in the experiment with HCT-15, under 0.01 µM; in the experiment on HL-60 it was < 0.01 µM (active); in the experiment with HT-29 it was < 0.01 µM (active); in the experiment with MOLT-4 it was < 0.01 µM (active). Besides, the GI50 in the experiment on Malme-3M was 0.126 µM (active); in the experiment with NCI-H23 it was < 0.01 µM (active); with OVCAR-3 it was < 0.033 µM (active); in the experiment on OVCAR-4 it was < 0.01 µM (active); in the experiment with OVCAR-5 it was 0.158 µM (active); in the experiment with RXF 393, < 0.01 µM (active). For the same compound, the GI50 with SF-539 was 0.0243 µM (active); with SK-MEL-2 it was 0.119 µM (active); in the experiment on SK-MEL-5 it was 0.0243 µM (active); with UACC-257, 0.201 µM (active); in the experiment on UO-31, 0.0335 µM (active).
